Assay results reported in patent US20050075375A1 (priority 2003, published 2005).
Read-outs that look alike come from different tables or passages of the source.

Tested on: monocistronic NK5.1 HCV replicon in Huh7 cells
Assay: HCV replicon assay, monocistronic replicon cell line
Assay type: cell-based, hepatitis C virus
Settings: read-out: Mono EC50 Median
Summary of the method: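 Huh7 cells carrying the monocistronic NK5.1 replicon, seeded 24 h before dosing, were exposed to six-point half-log compound series (0.6% DMSO) for 3 days at 37 °C. Replicon RNA was quantified by TaqMan RT-PCR, normalised to GAPDH and compared with DMSO controls to derive EC50.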

[1] = Hepatitis C virus, Huh-7, 72 h, Table 1, monocistronic replicon in Huh7 cells, 3 days incubation, HCV RNA/GAPDH RNA by TaqMan RT-PCR
[2] = Hepatitis C virus, Huh-7, monocistronic NK5.1 HCV replicon in Huh7 cells, median value

SMILES: Oc1ccc(F)cc1-c1nc(-c2ccccn2)no1 [Compound 164, 4-Fluoro-2-(3-pyridin-2-yl-[1,2,4]oxadiazol-5-yl)-phenol]
- EC50 [1]: 9 µM

SMILES: COc1cccc(-c2nc(-c3ncccc3[N+](=O)[O-])no2)c1 [Compound 165, 2-[5-(3-Methoxy-phenyl)-[1,2,4]oxadiazol-3-yl]-3-nitro-pyridine]
- EC50 [1]: 18 µM

SMILES: COc1cccc(-c2nc(-c3ncccc3[N+](=O)[O-])no2)c1O [Compound 166, 2-Methoxy-6-[3-(3-nitro-pyridin-2-yl)-[1,2,4]oxadiazol-5-yl]-phenol]
- EC50 [1]: > 19 µM

SMILES: O=[N+]([O-])c1ccc(-c2nc(-c3ncccc3[N+](=O)[O-])no2)c(Cl)c1 [Compound 167, 2-[5-(2-Chloro-4-nitro-phenyl)-[1,2,4]oxadiazol-3-yl]-3-nitro-pyridine]
- EC50 (Hepatitis C virus, Huh-7, 72 h): 12 µM

SMILES: O=[N+]([O-])c1ccc(F)c(-c2nc(-c3ncccc3[N+](=O)[O-])no2)c1 [Compound 168, 2-[5-(2-Fluoro-5-nitro-phenyl)-[1,2,4]oxadiazol-3-yl]-3-nitro-pyridine]
- EC50 (Hepatitis C virus, Huh-7, 72 h): 4.6 µM

SMILES: COc1ccc2ccccc2c1-c1nc(-c2ncccc2[N+](=O)[O-])no1 [Compound 169]
- EC50 [1]: > 19 µM

SMILES: COc1ccc(-c2nc(-c3ncccc3[N+](=O)[O-])no2)c(O)c1 [Compound 170, 5-Methoxy-2-[3-(3-nitro-pyridin-2-yl)-[1,2,4]oxadiazol-5-yl]-phenol]
- EC50 [1]: 12 µM

SMILES: O=[N+]([O-])c1cccnc1-c1noc(-c2cc(O)ccc2O)n1 [Compound 171, 2-[3-(3-Nitro-pyridin-2-yl)-[1,2,4]oxadiazol-5-yl]-benzene-1,4-diol]
- EC50 [1]: 5.4 µM

SMILES: Cc1ccc(O)c(-c2nc(-c3ccccn3)no2)c1 [Compound 172, 4-Methyl-2-(3-pyridin-2-yl-[1,2,4]oxadiazol-5-yl)-phenol]
- EC50 [1]: 6 µM

SMILES: O=[N+]([O-])c1ccc(Cl)c(-c2nc(-c3ccccn3)no2)c1 [Compound 173, 2-[5-(2-Chloro-5-nitro-phenyl)-[1,2,4]oxadiazol-3-yl]-pyridine]
- EC50 [1]: 3.8 µM

SMILES: Cc1ccc(O)c(-c2nc(-c3ncccc3[N+](=O)[O-])no2)c1 [Compound 174, 4-Methyl-2-[3-(3-nitro-pyridin-2-yl)-[1,2,4]oxadiazol-5-yl]-phenol]
- EC50 [1]: 10 µM

SMILES: COc1ccc(-c2nc(-c3ncccc3C)no2)c(O)c1 [Compound 175, 5-Methoxy-2-[3-(3-methyl-pyridin-2-yl)-[1,2,4]oxadiazol-5-yl]-phenol]
- EC50 [1]: 0.5 µM

SMILES: COc1cccc(-c2nc(-c3ncccc3C)no2)c1 [Compound 176, 2-[5-(3-Methoxy-phenyl)-[1,2,4]oxadiazol-3-yl]-3-methyl-pyridine]
- EC50 [1]: 13 µM

SMILES: Cc1cccnc1-c1noc(-c2cccc3ccccc23)n1 [Compound 177, 3-Methyl-2-(5-naphthalen-1-yl-[1,2,4]oxadiazol-3-yl)-pyridine]
- EC50 [1]: 7.2 µM

SMILES: COc1ccc(OC)c(-c2nc(-c3ncccc3C)no2)c1 [Compound 178, 2-[5-(2,5-Dimethoxy-phenyl)-[1,2,4]oxadiazol-3-yl]-3-methyl-pyridine]
- EC50 [1]: > 32 µM

SMILES: Cc1cccnc1-c1noc(-c2cc(O)ccc2O)n1 [Compound 179, 2-[3-(3-Methyl-pyridin-2-yl)-[1,2,4]oxadiazol-5-yl]-benzene-1,4-diol]
- EC50 [1]: 1.3 µM

SMILES: Cc1cccnc1-c1noc(-c2ccc(N(C)C)cc2O)n1 [Compound 180]
- EC50 [1]: 2.1 µM

SMILES: Cc1cccnc1-c1noc(-c2cccc([N+](=O)[O-])c2)n1 [Compound 181]
- EC50 [1]: > 32 µM

SMILES: Cc1cccnc1-c1noc(-c2ccc([N+](=O)[O-])cc2Cl)n1 [Compound 182, 2-[5-(2-Chloro-4-nitro-phenyl)-[1,2,4]oxadiazol-3-yl]-3-methyl-pyridine]
- EC50 [1]: 12 µM

SMILES: COc1ccc2ccccc2c1-c1nc(-c2ncccc2C)no1 [Compound 183]
- EC50 [1]: > 32 µM

SMILES: COc1cccc(-c2nc(-c3ncccc3C)no2)c1O [Compound 184, 2-Methoxy-6-[3-(3-methyl-pyridin-2-yl)-[1,2,4]oxadiazol-5-yl]-phenol]
- EC50 [1]: 0.68 µM

SMILES: COc1ccc(O)c(-c2nc(-c3ncccc3C)no2)c1 [Compound 185, 4-Methoxy-2-[3-(3-methyl-pyridin-2-yl)-[1,2,4]oxadiazol-5-yl]-phenol]
- EC50 [1]: 1.6 µM

SMILES: Cc1cccnc1-c1noc(-c2cc(Cl)ccc2O)n1 [Compound 186, 4-Chloro-2-[3-(3-methyl-pyridin-2-yl)-[1,2,4]oxadiazol-5-yl]-phenol]
- EC50 [1]: 3.9 µM

SMILES: Cc1cccnc1-c1noc(-c2cc(F)ccc2O)n1 [Compound 187]
- EC50 (Table 1, monocistronic replicon in Huh7 cells, 3 days incubation, HCV RNA/GAPDH RNA by TaqMan RT-PCR): 6.5 µM

SMILES: Cc1cccnc1-c1noc(-c2ccccc2O)n1 [Compound 188, 2-[3-(3-Methyl-pyridin-2-yl)-[1,2,4]oxadiazol-5-yl]-phenol]
- EC50 [1]: > 32 µM

SMILES: Cc1cccnc1-c1noc(-c2c(O)ccc3ccccc23)n1 [Compound 189, 1-[3-(3-Methyl-pyridin-2-yl)-[1,2,4]oxadiazol-5-yl]-naphthalen-2-ol]
- EC50 [1]: 1.2 µM

SMILES: Cc1cccnc1-c1noc(-c2cc(Br)ccc2O)n1 [Compound 190, 4-Bromo-2-[3-(3-methyl-pyridin-2-yl)-[1,2,4]oxadiazol-5-yl]-phenol]
- EC50 [1]: 0.69 µM

SMILES: Cc1cccnc1-c1noc(-c2cc([N+](=O)[O-])ccc2Cl)n1 [Compound 191, 2-[5-(2-Chloro-5-nitro-phenyl)-[1,2,4]oxadiazol-3-yl]-3-methyl-pyridine]
- EC50 [1]: 2 µM

SMILES: Cc1ccc(O)c(-c2nc(-c3ncccc3C)no2)c1 [Compound 192, 4-Methyl-2-[3-(3-methyl-pyridin-2-yl)-[1,2,4]oxadiazol-5-yl]-phenol]
- EC50 [1]: > 32 µM

SMILES: COc1ccc(OC)c(-c2nc(-c3nccc4ccccc34)no2)c1 [Compound 193, 1-[5-(2,5-Dimethoxy-phenyl)-[1,2,4]oxadiazol-3-yl]-isoquinoline]
- EC50 [1]: 1.3 µM

SMILES: Cc1ccc(O)c(-c2nc(-c3nccc4ccccc34)no2)c1 [Compound 194, 2-(3-Isoquinolin-1-yl-[1,2,4]oxadiazol-5-yl)-4-methyl-phenol]
- EC50 [1]: > 10 µM

SMILES: O=[N+]([O-])c1ccc(O)c(-c2nc(-c3nccc4ccccc34)no2)c1 [Compound 195, 2-(3-Isoquinolin-1-yl-[1,2,4]oxadiazol-5-yl)-4-nitro-phenol]
- EC50 [1]: > 32 µM

SMILES: Oc1ccc(O)c(-c2nc(-c3nccc4ccccc34)no2)c1 [Compound 196, 2-(3-Isoquinolin-1-yl-[1,2,4]oxadiazol-5-yl)-benzene-1,4-diol]
- EC50 [1]: > 32 µM

SMILES: COc1cccc(-c2nc(-c3nccc4ccccc34)no2)c1 [Compound 197, 1-[5-(3-Methoxy-phenyl)-[1,2,4]oxadiazol-3-yl]-isoquinoline]
- EC50 [1]: > 32 µM

SMILES: Oc1ccc(Cl)cc1-c1nc(-c2nccc3ccccc23)no1 [Compound 198, 4-Chloro-2-(3-isoquinolin-1-yl-[1,2,4]oxadiazol-5-yl)-phenol]
- EC50 [1]: > 32 µM

SMILES: Oc1ccc(F)cc1-c1nc(-c2nccc3ccccc23)no1 [Compound 199, 4-Fluoro-2-(3-isoquinolin-1-yl-[1,2,4]oxadiazol-5-yl)-phenol]
- EC50 [1]: 1.1 µM

SMILES: c1ccc2c(-c3nc(-c4nccc5ccccc45)no3)cccc2c1 [Compound 200, 1-(5-Naphthalen-1-yl-[1,2,4]oxadiazol-3-yl)-isoquinoline]
- EC50 [1]: > 32 µM

SMILES: CN(C)c1ccc(-c2nc(-c3nccc4ccccc34)no2)c(O)c1 [Compound 201, 5-Dimethylamino-2-(3-isoquinolin-1-yl-[1,2,4]oxadiazol-5-yl)-phenol]
- EC50 [1]: > 32 µM

SMILES: COc1ccc(O)c(-c2nc(-c3nccc4ccccc34)no2)c1 [Compound 202, 2-(3-Isoquinolin-1-yl-[1,2,4]oxadiazol-5-yl)-4-methoxy-phenol]
- EC50 [1]: 1.9 µM

SMILES: COc1ccc2ccccc2c1-c1nc(-c2nccc3ccccc23)no1 [Compound 203, 1-[5-(2-Methoxy-naphthalen-1-yl)-[1,2,4]oxadiazol-3-yl]-isoquinoline]
- EC50 [1]: 23 µM

SMILES: Oc1ccc(Br)cc1-c1nc(-c2nccc3ccccc23)no1 [Compound 204]
- EC50 [1]: 1.6 µM

SMILES: COc1ccc(-c2nc(-c3nccc4ccccc34)no2)c(O)c1 [Compound 205, 2-(3-Isoquinolin-1-yl-[1,2,4]oxadiazol-5-yl)-5-methoxy-phenol]
- EC50 [1]: 1 µM

SMILES: Oc1ccccc1-c1nc(-c2nccc3ccccc23)no1 [Compound 206]
- EC50 [1]: 1.4 µM

SMILES: COc1cccc(-c2nc(-c3ncccc3C(F)(F)F)no2)c1O [Compound 207, 2-Methoxy-6-[3-(3-trifluoromethyl-pyridin-2-yl)-[1,2,4]oxadiazol-5-yl]-phenol]
- EC50 [1]: 17 µM

SMILES: COc1ccc(O)c(-c2nc(-c3ncccc3C(F)(F)F)no2)c1 [Compound 208, 4-Methoxy-2-[3-(3-trifluoromethyl-pyridin-2-yl)-[1,2,4]oxadiazol-5-yl]-phenol]
- EC50 [1]: 3.5 µM

SMILES: COc1cccc(-c2nc(-c3nccc4ccccc34)no2)c1O [Compound 209, 2-(3-Isoquinolin-1-yl-[1,2,4]oxadiazol-5-yl)-6-methoxy-phenol]
- EC50 [1]: 7.4 µM

SMILES: Oc1ccc2ccccc2c1-c1nc(-c2nccc3ccccc23)no1 [Compound 210, 1-(3-Isoquinolin-1-yl-[1,2,4]oxadiazol-5-yl)-naphthalen-2-ol]
- EC50 [1]: 2.4 µM

SMILES: COc1ccc(-c2nc(-c3ncccc3C(F)(F)F)no2)c(O)c1 [Compound 211, 5-Methoxy-2-[3-(3-trifluoromethyl-pyridin-2-yl)-[1,2,4]oxadiazol-5-yl]-phenol]
- EC50 [1]: 11 µM
- EC50 [2]: 11 µM

SMILES: O=[N+]([O-])c1ccc(-c2nc(-c3nccc4ccccc34)no2)c(Cl)c1 [Compound 212]
- EC50 [1]: > 32 µM
- EC50 [2]: > 32 µM

SMILES: Oc1ccc(Br)cc1-c1nc(-c2ccc(C(F)(F)F)cn2)no1 [Compound 213]
- EC50 [1]: 25 µM
- EC50 [2]: 25 µM
